This experiment deals with T1, VEGFR/KDR (Homo sapiens, UniProt P35968).
T1 construct: made in house; host or cells: Sf9 cells (Spodoptera frugiperda), baculovirus
T1 sequence (P35968 806-1356): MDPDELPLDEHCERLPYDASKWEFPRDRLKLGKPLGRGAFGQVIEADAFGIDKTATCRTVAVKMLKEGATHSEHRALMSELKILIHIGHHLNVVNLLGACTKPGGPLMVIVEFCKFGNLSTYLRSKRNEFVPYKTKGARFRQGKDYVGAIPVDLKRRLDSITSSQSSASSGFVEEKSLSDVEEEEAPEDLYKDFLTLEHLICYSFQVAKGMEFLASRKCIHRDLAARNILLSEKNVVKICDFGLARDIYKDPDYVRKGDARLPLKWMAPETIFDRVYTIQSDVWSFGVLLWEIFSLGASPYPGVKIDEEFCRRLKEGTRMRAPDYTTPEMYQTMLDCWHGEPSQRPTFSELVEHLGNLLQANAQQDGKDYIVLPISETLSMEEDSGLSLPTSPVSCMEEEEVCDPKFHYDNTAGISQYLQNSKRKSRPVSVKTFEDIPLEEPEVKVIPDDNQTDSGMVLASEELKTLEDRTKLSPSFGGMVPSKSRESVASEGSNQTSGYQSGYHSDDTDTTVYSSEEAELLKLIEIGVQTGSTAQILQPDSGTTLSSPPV
Kind of experiment: VEGFR/KDR kinase inhibition, DELFIA assay. It is filed as biochemical. Conditions: ATP 0.6 uM (2x Km), enzyme 5 nM. An outline of the steps: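 DELFIA time-resolved fluorescence readout using Europium-tagged anti-phosphotyrosine antibody after EDTA stop. Kinase reaction on plate-bound poly(Glu4,Tyr) ran 10-30 min at 30° C with 5 nM enzyme and 0.6 uM ATP (2× Km), following 4 min on-ice pre-incubation with compound; IC50 over a concentration range.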
The term IC50 denotes the concentration that gives 50% inhibition. Low readings indicate greater potency, high ones weaker potency. The compound `COCCN(CCn1cc(-c2cc3nccc(Oc4ccc(NC(=O)NC5CC5)cc4F)c3s2)cn1)C(C)=O` [Compound 254, N-(2-(4-(7-(4-(3-cyclopropylureido)-2-fluorophenoxy)thieno[3,2-b]pyridine-2-yl)-1H-pyrazol-1-yl)ethyl)-N-(2-methoxyethyl)acetamide] had an IC50 of under 50 nM.

For the compound `COCCN(CCn1cnc(-c2cc3nccc(Oc4ccc(NC(=O)NC5CC5)cc4F)c3s2)c1)C(C)=O` [Compound 254-A, N-(2-(4-(7-(4-(3-cyclopropylureido)-2-fluorophenoxy)-thieno[3,2-b]pyridin-2-yl)-1H-imidazol-1-yl)ethyl)-N-(2-methoxyethyl)acetamide], the half-inhibitory concentration (IC50) was under 50 nM.

For the compound `CCNC(=O)N(CCOC)CCn1cc(-c2cc3nccc(Oc4ccc(NC(=O)NC5CC5)cc4F)c3s2)cn1` [Compound 255, N-(2-(4-(7-(4-(3-cyclopropylureido)-2-fluorophenoxy)thieno[3,2-b]-pyridine-2-yl)-1H-pyrazol-1-yl)ethyl)-N-(1-ethyl)-N-[3-(2-methoxyethyl)]urea], the IC50 was 50 to 100 nM.

In turn, `CCNC(=O)N(CCOC)CCn1cnc(-c2cc3nccc(Oc4ccc(NC(=O)NC5CC5)cc4F)c3s2)c1` [Compound 256, N-(2-(4-(7-(4-(3-cyclopropylureido)-2-fluorophenoxy)thieno[3,2-b]-pyridin-2-yl)-1H-imidazol-1-yl)ethyl)-N-(1-ethyl)-N-[3-(2-methoxyethyl)]urea] returned an IC50 of under 50 nM.

Compound `COCCN(CCn1cc(-c2cc3nccc(Oc4ccc(NC(=O)NC5CC5)cc4F)c3s2)cn1)C(=O)CO` [Compound 257, N-(2-(4-(7-(4-(3-cyclopropylureido)-2-fluorophenoxy)thieno[3,2-b]-pyridin-2-yl)-1H-pyrazol-1-yl)ethyl)-2-hydroxy-N-(2-methoxyethyl)acetamide] registered an IC50 of under 50 nM.

As for `COCCN(CCn1cnc(-c2cc3nccc(Oc4ccc(NC(=O)NC5CC5)cc4F)c3s2)c1)C(=O)CO` [Compound 258, N-(2-(4-(7-(4-(3-cyclopropylureido)-2-fluorophenoxy)thieno[3,2-b]-pyridin-2-yl)-1H-imidazol-1-yl)ethyl)-2-hydroxy-N-(2-methoxyethyl)acetamide], the IC50 is under 50 nM.

`COCCOCCOCCOCCN(Cc1ccc(-c2cc3nccc(Oc4ccc(NC(=O)NC5CC5)c(F)c4F)c3s2)nc1)C(=O)CO` [Compound 259, N-((6-(7-(4-(3-cyclopropylureido)-2,3-difluorophenoxy)thieno-[3,2-b]pyridin-2-yl)pyridin-3-yl)methyl)-2-hydroxy-N-(2,5,8,11-tetraoxatridecan-13-yl)acetamide] registered an IC50 of under 50 nM.

`COCCN(Cc1ccc(-c2cc3nccc(Oc4ccc(NC(=O)NC5CC5)c(F)c4F)c3s2)nc1)C(=O)CO` [Compound 259-A, N-((6-(7-(4-(3-cyclopropylureido)-2,3-difluorophenoxy)thieno[3,2-d]pyridin-2-yl)pyridin-3-yl)methyl)-2-hydroxy-N-(2-methoxyethyl)acetamide] gave an IC50 of under 50 nM.

As for `CN1CCN(CCn2cnc(-c3cc4nccc(Oc5ccc(NC(=O)NC6CC6)cc5F)c4s3)c2)CC1` [Compound 266, 1-Cyclopropyl-3-(3-fluoro-4-(2-(1-(2-(4-methylpiperazin-1-yl)ethyl)-1H-imidazol-4-yl)thieno[3,2-b]pyridin-7-yloxy)phenyl)urea], the IC50 is under 50 nM.

The compound `O=C(Nc1ccc(Oc2ccnc3cc(-c4cn(CCN5CCCC5=O)cn4)sc23)c(F)c1)NC1CC1` [Compound 267, 1-cyclopropyl-3-(3-fluoro-4-(2-(1-(2-(2-oxopyrrolidin-1-yl)ethyl)-1H-imidazol-4-yl)thieno[3,2-b]pyridin-7-yloxy)phenyl)urea] displayed a concentration for half-maximal inhibition (IC50) of under 50 nM.

For `O=C(Nc1ccc(Oc2ccnc3cc(C4=CCNCC4)sc23)c(F)c1)NC1CC1` [Compound 271-A, 1-Cyclopropyl-3-(3-fluoro-4-(2-(1,2,3,6-tetrahydropyridin-4-yl)thieno[3,2-b]pyridin-7-yloxy)phenyl)urea], the half-inhibitory concentration (IC50) was 50 to 100 nM.

On to `O=C(O)CCC(=O)N1CC=C(c2cc3nccc(Oc4ccc(NC(=O)NC5CC5)cc4F)c3s2)CC1` [Compound 273, 4-(4-(7-(4-(3-cyclopropylureido)-2-fluorophenoxy)thieno[3,2-b]pyridin-2-yl)-5,6-dihydropyridin-1(2H)-yl)-4-oxobutanoic acid], for which the IC50 was at least 250 nM.

With `COCCOCC(=O)N1CC=C(c2cc3nccc(Oc4ccc(NC(=O)NC5CC5)cc4F)c3s2)CC1` [Compound 274], the IC50 is under 50 nM.

`CS(=O)(=O)N1CC=C(c2cc3nccc(Oc4ccc(NC(=O)NC5CC5)cc4F)c3s2)CC1` [Compound 275, 1-cyclopropyl-3-(3-fluoro-4-(2-(1-(methylsulfonyl)-1,2,3,6-tetrahydropyridin-4-yl)thieno[3,2-b]pyridin-7-yloxy)phenyl)urea] displayed an IC50 of under 50 nM.

On to `O=C(Nc1ccc(Oc2ccnc3cc(C4=CCN(CCCN5CCOCC5)CC4)sc23)c(F)c1)NC1CC1` [Compound 276, 1-cyclopropyl-3-(3-fluoro-4-(2-(1-(3-morpholinopropyl)-1,2,3,6-tetrahydropyridin-4-yl)thieno[3,2-b]pyridin-7-yloxy)phenyl)urea], for which the IC50 is 50 to 100 nM.

`O=C(Nc1ccc(Oc2ccnc3cc(C4=CCN(CCCCO)CC4)sc23)c(F)c1)NC1CC1` [Compound 277, 1-cyclopropyl-3-(3-fluoro-4-(2-(1-(4-hydroxybutyl)-1,2,3,6-tetrahydropyridin-4-yl)thieno[3,2-b]pyridin-7-yloxy)phenyl)urea] had an IC50 of 100 to 250 nM.

In the case of `O=C(Nc1ccc(Oc2ccnc3cc(-c4ccc(CN5CCCC5=O)nc4)sc23)c(F)c1)NC1CC1` [Compound 283, 1-cyclopropyl-3-(3-fluoro-4-(2-(6-((2-oxopyrrolidin-1-yl)methyl)pyridin-3-yl)thieno[3,2-b]pyridin-7-yloxy)phenyl)urea], the IC50 is under 50 nM.

In the case of `O=C(Nc1ccc(Oc2ccnc3cc(-c4ccc(CCN5CCCC5=O)cn4)sc23)c(F)c1)NC1CC1` [Compound 295, 1-cyclopropyl-3-(3-fluoro-4-(2-(5-(2-(2-oxopyrrolidin-1-yl)ethyl)pyridin-2-yl)thieno[3,2-b]pyridin-7-yloxy)phenyl)urea], the IC50 is under 50 nM.

In turn, `Cn1c(CN2CCOCC2)cnc1-c1cc2nccc(Oc3ccc(NC(=O)NC4CC4)cc3F)c2s1` [Compound 298] returned an IC50 of under 50 nM.

`CC(C)NC(=O)Nc1ccc(Oc2ccnc3cc(-c4ncc(CN5CCOCC5)n4C)sc23)c(F)c1` [Compound 299, 1-(3-fluoro-4-(2-(1-methyl-5-(morpholinomethyl)-1H-imidazol-2-yl)thieno[3,2-b]pyridin-7-yloxy)phenyl)-3-isopropylurea] yielded an IC50 of under 50 nM.

`CC(=O)OCC(=O)N1CCN(Cc2ccc(-c3cc4nccc(Oc5ccc(NC(=O)NC6CC6)cc5F)c4s3)nc2)CC1` [Compound 310, 2-(4-((6-(7-(4-(3-cyclopropylureido)-2-fluorophenoxy)thieno[3,2-b]pyridin-2-yl)pyridin-3-yl)methyl)piperazin-1-yl)-2-oxoethyl acetate] gave a concentration for half-maximal inhibition (IC50) of under 50 nM.

In the case of `O=C(Nc1ccc(Oc2ccnc3cc(-c4ccc(CN5CC6CNCC6C5)cn4)sc23)c(F)c1)NC1CC1` (stereo not shown) [Compound 311, 1-cyclopropyl-3-(3-fluoro-4-(2-(5-((hexahydropyrrolo[3,4-c]pyrrol-2(1H)-yl)methyl)pyridin-2-yl)thieno[3,2-b]pyridin-7-yloxy)phenyl)urea], the IC50 is under 50 nM.
